In US20230172915A1, “DHODH INHIBITOR FOR THE TREATMENT OF COVID-19” (priority 2020, published 2023):

How the values were obtained:
DHODH = molecular target: T1, DHODH (Homo sapiens, UniProt Q02127); assay: Isolated mitochondria colorimetric assay of DHODH activity; type: biochemical; details: 0.1, 1, 10, 100, 1000, or 1000 nM
T1 construct: from tissue; host or cells: isolated mitochondria / mitochondria extracts
Source text: FIG. 3 is a plot of % inhibition vs compound concentration in nM, illustrating the results of a colorimetric assay of inhibition of DHODH activity in vitro in mitochondria extracts by PTC299, brequinar, and teriflunomide, compared to the negative control, PTC-371.
The latter two compounds are known DHODH inhibitors.

[1] = system: HT1080 human fibrosarcoma cells; assay: De novo pyrimidine nucleotide synthesis from 15N-glutamine in HT1080 cells; type: cell-based; details: 100 nM
Source text: In this Example, fibrosarcoma cells were used to investigate the effect of PTC299 on pyrimidine nucleotide synthesis. Glutamine is an upstream precursor of dihydroorotic acid in the de novo pyrimidine synthesis pathway, as illustrated in FIG. 1.

SARS-CoV-2 USA-WA1/2020 = assay: PTC299 and remdesivir alone or combined, SARS-CoV-2 titer in Vero cells (TCID50); type: cell-based; details: remdesivir 5 µM, 24 hours post infection

T1 sequence (Q02127 whole entry, species assumed): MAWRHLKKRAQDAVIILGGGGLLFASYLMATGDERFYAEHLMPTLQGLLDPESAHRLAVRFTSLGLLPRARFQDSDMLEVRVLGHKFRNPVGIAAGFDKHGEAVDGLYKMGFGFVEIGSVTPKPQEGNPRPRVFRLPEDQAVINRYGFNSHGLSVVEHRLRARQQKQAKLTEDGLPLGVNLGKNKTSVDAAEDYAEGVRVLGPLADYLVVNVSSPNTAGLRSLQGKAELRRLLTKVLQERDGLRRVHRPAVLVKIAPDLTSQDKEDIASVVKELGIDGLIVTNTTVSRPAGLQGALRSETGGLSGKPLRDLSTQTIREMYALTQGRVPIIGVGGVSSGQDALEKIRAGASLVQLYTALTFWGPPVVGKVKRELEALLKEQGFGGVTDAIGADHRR

| SMILES | inhibition of DHODH activity (DHODH) | suppression of de novo pyrimidine nucleotide biosynthesis [1] | reduction in titer relative to untreated control (SARS-CoV-2 USA-WA1/2020) [%] |
| --- | --- | --- | --- |
| COc1ccc(C2c3[nH]c4ccc(Cl)cc4c3CCN2C(=O)Oc2ccc(Cl)cc2)cc1 (stereo not drawn) [PTC-371, reference compound] | no inhibition was observed | did not suppress de novo pyrimidine nucleotide biosynthesis | – |
| CCC(CC)COC(=O)[C@H](C)N[P@](=O)(OC[C@H]1O[C@@](C#N)(c2ccc3c(N)ncnn23)[C@H](O)[C@@H]1O)Oc1ccccc1 [Remdesivir, remdesivir, reference compound] | – | – | 86 |
